System: 422866-222-R5-J1-PDC complex spheroid viability
Assay: Anticancer human tumor 422866-222-R5-J1-PDC patient-derived pancreatic adenocarcinoma cell line growth inhibition [POLQ]
Conditions: for IC50: curve of first compound; for viability, T/C: stronger effect = lower value
Method in brief: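 Complex spheroid viability model combining PDC tumour cells with endothelial (HUVEC) and MSC stromal cells. Novobiocin, ART-558 or RP6685 were tested singly and in combination with standard and investigational anticancer drugs. Each was titrated in half-log steps from near clinical Cmax, or from 10 microM where Cmax was unknown.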

[1] = second compound 0.0316 µM, first compound 0.0316 µM
[2] = second compound 0.0316 µM, first compound 0.1 µM
[3] = second compound 0.0316 µM, first compound 0.316 µM
[4] = second compound 0.0316 µM, first compound 1 µM
[5] = second compound 0.0316 µM, first compound 3.16 µM
[6] = second compound 0.0316 µM, first compound 10 µM
[7] = second compound 0.1 µM, first compound 0.0316 µM
[8] = second compound 0.1 µM, first compound 0.1 µM
[9] = second compound 0.1 µM, first compound 0.316 µM
[10] = second compound 0.1 µM, first compound 1 µM
[11] = second compound 0.1 µM, first compound 3.16 µM
[12] = second compound 0.1 µM, first compound 10 µM
[13] = second compound 0.316 µM, first compound 0.0316 µM
[14] = second compound 0.316 µM, first compound 0.1 µM
[15] = second compound 0.316 µM, first compound 0.316 µM
[16] = second compound 0.316 µM, first compound 1 µM
[17] = second compound 0.316 µM, first compound 3.16 µM
[18] = second compound 0.316 µM, first compound 10 µM
[19] = second compound 1 µM, first compound 0.0316 µM
[20] = second compound 1 µM, first compound 0.1 µM
[21] = second compound 1 µM, first compound 0.316 µM
[22] = second compound 1 µM, first compound 1 µM
[23] = second compound 1 µM, first compound 3.16 µM
[24] = second compound 1 µM, first compound 10 µM
[25] = second compound 3.16 µM, first compound 0.0316 µM
[26] = second compound 3.16 µM, first compound 0.1 µM
[27] = second compound 3.16 µM, first compound 0.316 µM
[28] = second compound 3.16 µM, first compound 1 µM
[29] = second compound 3.16 µM, first compound 3.16 µM
[30] = second compound 3.16 µM, first compound 10 µM
[31] = second compound 10 µM, first compound 0.0316 µM
[32] = second compound 10 µM, first compound 0.1 µM
[33] = second compound 10 µM, first compound 0.316 µM
[34] = second compound 10 µM, first compound 1 µM
[35] = second compound 10 µM, first compound 3.16 µM
[36] = second compound 10 µM, first compound 10 µM
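Further: spheroids exposed to compounds for one week before readout.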
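Wherever viability, T/C is given: percent of DMSO vehicle wells luminescence so 100% = untreated viability.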

Compound `C=CC(=O)N1CCN(c2nc(=O)n(-c3c(C)ccnc3C(C)C)c3nc(-c4c(O)cccc4F)c(F)cc23)C(C)C1` (stereo not drawn) + Nc1ccc(C#CCN(C(=O)Cc2ncc(C(F)(F)F)cc2C(F)(F)F)c2ccc(F)cc2)nn1 has an IC50 (second compound 0.0316 µM) of less than 31.6 nM, an IC50 (second compound 0.1 µM) of less than 31.6 nM and an IC50 (second compound 0.316 µM) of less than 31.6 nM. For the same compound, the IC50 (second compound 1 µM) was less than 31.6 nM, the IC50 (second compound 3.16 µM) was less than 31.6 nM and the IC50 (second compound 10 µM) was less than 31.6 nM. It also gave a viability, T/C [1] of 32.5%, a viability, T/C [2] of 28.5% and a viability, T/C [3] of 28.3%. The viability, T/C [4] was 28.5%, the viability, T/C [5] was 27.4% and the viability, T/C [6] was 23.7%. It also gave a viability, T/C [7] of 32%, a viability, T/C [8] of 31.2% and a viability, T/C [9] of 24%. For the same compound, the viability, T/C [10] was 25.7%, the viability, T/C [11] was 23.7% and the viability, T/C [12] was 22.4%. For the same compound, the viability, T/C [13] was 40.1%, the viability, T/C [14] was 27.8% and the viability, T/C [15] was 29%. The viability, T/C [16] was 24.4%, the viability, T/C [17] was 25.1% and the viability, T/C [18] was 24.2%. For the same compound, the viability, T/C [19] was 34%, the viability, T/C [20] was 33.1% and the viability, T/C [21] was 25.9%. It also gave a viability, T/C [22] of 23.2%, a viability, T/C [23] of 22.2% and a viability, T/C [24] of 21.1%. For the same compound, the viability, T/C [25] was 33.4%, the viability, T/C [26] was 27.7% and the viability, T/C [27] was 29.6%. The viability, T/C [28] was 24.5%, the viability, T/C [29] was 24.4% and the viability, T/C [30] was 29.1%. The viability, T/C [31] was 30.8%, the viability, T/C [32] was 32.6% and the viability, T/C [33] was 32.4%. It also gave a viability, T/C [34] of 26.3%, a viability, T/C [35] of 24.9% and a viability, T/C [36] of 27.6%.

With `C#Cc1c(F)ccc2cc(O)cc(-c3ncc4c(N5CC6CCC(C5)N6)nc(OCC56CCCN5CC(F)C6)nc4c3F)c12` (stereo not drawn) + Cc1cccc(N(C)C(=O)C2C(O)CCN2c2nc(C)cc(C(F)(F)F)c2C#N)c1 the IC50 (second compound 0.0316 µM) was 758 nM, the IC50 (second compound 0.1 µM) was 1090 nM and the IC50 (second compound 0.316 µM) was 762 nM. The IC50 (second compound 1 µM) was 712 nM, the IC50 (second compound 3.16 µM) was 480 nM and the IC50 (second compound 10 µM) was 465 nM. It also gave a viability, T/C [1] of 104%, a viability, T/C [2] of 79.8% and a viability, T/C [3] of 65.2%. For the same compound, the viability, T/C [4] was 45.5%, the viability, T/C [5] was 33% and the viability, T/C [6] was 28.7%. The viability, T/C [7] was 92.1%, the viability, T/C [8] was 87.2% and the viability, T/C [9] was 65.7%. For the same compound, the viability, T/C [10] was 54.6%, the viability, T/C [11] was 33.3% and the viability, T/C [12] was 25.9%. The viability, T/C [13] was 102%, the viability, T/C [14] was 80% and the viability, T/C [15] was 67.6%. It also gave a viability, T/C [16] of 46%, a viability, T/C [17] of 29.3% and a viability, T/C [18] of 29.1%. The viability, T/C [19] was 95.8%, the viability, T/C [20] was 96.9% and the viability, T/C [21] was 68.1%. It also gave a viability, T/C [22] of 43.7%, a viability, T/C [23] of 33.5% and a viability, T/C [24] of 32%. For the same compound, the viability, T/C [25] was 92.8%, the viability, T/C [26] was 74.4% and the viability, T/C [27] was 57%. For the same compound, the viability, T/C [28] was 40.8%, the viability, T/C [29] was 30.3% and the viability, T/C [30] was 33.9%. The viability, T/C [31] was 84.3%, the viability, T/C [32] was 69.2% and the viability, T/C [33] was 56.1%. It also gave a viability, T/C [34] of 39.9%, a viability, T/C [35] of 32.3% and a viability, T/C [36] of 27.6%.

`COc1cc(C2c3cc4c(cc3C(OC3OC5COC(C)OC5C(O)C3O)C3COC(=O)C23)OCO4)cc(OC)c1O` (stereo not drawn) + Nc1ccc(C#CCN(C(=O)Cc2ncc(C(F)(F)F)cc2C(F)(F)F)c2ccc(F)cc2)nn1 showed an IC50 (second compound 0.0316 µM) of 779 nM, an IC50 (second compound 0.1 µM) of 906 nM and an IC50 (second compound 0.316 µM) of 555 nM. The IC50 (second compound 1 µM) was 640 nM, the IC50 (second compound 3.16 µM) was 367 nM and the IC50 (second compound 10 µM) was 534 nM. For the same compound, the viability, T/C [1] was 90.9%, the viability, T/C [2] was 97.1% and the viability, T/C [3] was 62.7%. For the same compound, the viability, T/C [4] was 49.6%, the viability, T/C [5] was 33.5% and the viability, T/C [6] was 30.6%. The viability, T/C [7] was 110%, the viability, T/C [8] was 90.1% and the viability, T/C [9] was 76.2%. The viability, T/C [10] was 46.4%, the viability, T/C [11] was 31.2% and the viability, T/C [12] was 28.8%. The viability, T/C [13] was 123%, the viability, T/C [14] was 92.1% and the viability, T/C [15] was 55.5%. The viability, T/C [16] was 47.1%, the viability, T/C [17] was 29.2% and the viability, T/C [18] was 36.9%. For the same compound, the viability, T/C [19] was 94.3%, the viability, T/C [20] was 100% and the viability, T/C [21] was 68.5%. For the same compound, the viability, T/C [22] was 40.6%, the viability, T/C [23] was 32.1% and the viability, T/C [24] was 35.5%. For the same compound, the viability, T/C [25] was 93.3%, the viability, T/C [26] was 81.4% and the viability, T/C [27] was 48.2%. The viability, T/C [28] was 47.1%, the viability, T/C [29] was 37.6% and the viability, T/C [30] was 31.6%. The viability, T/C [31] was 103%, the viability, T/C [32] was 88.9% and the viability, T/C [33] was 55.4%. It also gave a viability, T/C [34] of 43.6%, a viability, T/C [35] of 38.4% and a viability, T/C [36] of 31.6%.

For `Nc1ccn(C2OC(CO)C(O)C2(F)F)c(=O)n1` (stereo not drawn) + COC1C(OC(N)=O)C(O)C(Oc2ccc3c(O)c(NC(=O)c4ccc(O)c(CC=C(C)C)c4)c(=O)oc3c2C)OC1(C)C, the IC50 (second compound 0.0316 µM) was 110 nM, the IC50 (second compound 0.1 µM) was 94 nM and the IC50 (second compound 0.316 µM) was 105 nM. For the same compound, the IC50 (second compound 1 µM) was 74.6 nM, the IC50 (second compound 3.16 µM) was 139 nM and the IC50 (second compound 10 µM) was 67.4 nM. The viability, T/C [1] was 73.5%, the viability, T/C [2] was 49.9% and the viability, T/C [3] was 40.9%. It also gave a viability, T/C [4] of 33.1%, a viability, T/C [5] of 28% and a viability, T/C [6] of 32%. It also gave a viability, T/C [7] of 75.6%, a viability, T/C [8] of 47.7% and a viability, T/C [9] of 40.9%. The viability, T/C [10] was 33.7%, the viability, T/C [11] was 32.6% and the viability, T/C [12] was 36.2%. For the same compound, the viability, T/C [13] was 74%, the viability, T/C [14] was 48.2% and the viability, T/C [15] was 42.5%. It also gave a viability, T/C [16] of 36.1%, a viability, T/C [17] of 31.7% and a viability, T/C [18] of 33.4%. The viability, T/C [19] was 67.3%, the viability, T/C [20] was 43.1% and the viability, T/C [21] was 41%. The viability, T/C [22] was 36.1%, the viability, T/C [23] was 38.4% and the viability, T/C [24] was 34.3%. For the same compound, the viability, T/C [25] was 61.5%, the viability, T/C [26] was 54.5% and the viability, T/C [27] was 38.8%. The viability, T/C [28] was 37.2%, the viability, T/C [29] was 34.5% and the viability, T/C [30] was 38.6%. It also gave a viability, T/C [31] of 62.7%, a viability, T/C [32] of 43.7% and a viability, T/C [33] of 37.5%. It also gave a viability, T/C [34] of 35.7%, a viability, T/C [35] of 39% and a viability, T/C [36] of 35.4%.

Source: PubChem BioAssay AID1963844 (Molecular Pharmacology Branch, DTP, NCI, 2024)
